Assay [1] deals with T1, Tubulin alpha-1A chain (Sus scrofa, UniProt P02550). The assay can be described thus: Percent inhibition of colchicine binding(ICB) at 5 uM [3H]colchicine concentration.
Assay [2] has as its target T1, Tubulin alpha-1A chain. The assay can be described thus: Inhibition of colchicine binding(ICB). [3H]colchicine concentration was 5 uM.
For assay [3], the target named is T1, Tubulin alpha-1A chain. The assay can be described thus: Inhibition of colchicine binding(ICB). Tubulin concentration was 1 uM.

A word on the Inhibition: it is how much of the control response was suppressed.

T1 sequence (P02550 whole entry, looked up): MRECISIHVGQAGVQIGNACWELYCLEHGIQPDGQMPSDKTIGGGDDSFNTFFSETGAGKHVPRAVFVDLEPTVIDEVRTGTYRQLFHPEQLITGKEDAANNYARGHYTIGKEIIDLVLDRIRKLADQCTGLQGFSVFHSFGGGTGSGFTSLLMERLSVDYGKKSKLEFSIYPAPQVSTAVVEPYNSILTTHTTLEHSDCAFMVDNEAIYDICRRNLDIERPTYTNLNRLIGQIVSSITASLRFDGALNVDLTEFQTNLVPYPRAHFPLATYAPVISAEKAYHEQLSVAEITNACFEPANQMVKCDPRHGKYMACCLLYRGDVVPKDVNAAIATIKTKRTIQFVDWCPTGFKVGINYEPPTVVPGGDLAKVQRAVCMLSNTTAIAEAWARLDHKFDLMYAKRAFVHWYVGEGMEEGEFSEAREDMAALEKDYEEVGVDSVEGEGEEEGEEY

As to `Oc1cc(-c2ccccc2F)nc2cc3c(cc12)OCO3` [2-(2-fluorophenyl)-6,7-methylenedioxyquinolin-4-one], the Inhibition at Tubulin alpha-1A chain [1] amounted to 39%.

In the case of `Oc1cc(-c2ccccc2F)nc2ccc(N3CCCC3)cc12` [2-(2-fluorophenyl)-6-(pyrrolidin-1-yl)quinolin-4(1H)-one], the Inhibition was determined as 93% on Tubulin alpha-1A chain [2] and 76% at Tubulin alpha-1A chain [3].

The record behind these values is BindingDB's records for doi:10.1021/jm0101085 (University of North Carolina, 2001).
